# Reference: patent US20220034868A1, “CARDIOTOXICITY ASSESSMENT METHOD” (ZEON CORPORATION, priority 2018, published 2022)
# Tested on: iCell Cardiomyocytes^2
# Assay: Cardiotoxicity assessment: cell-secreted BNP before and after drug addition (Human BNP ELISA Kit), 1060R 96-well plate
# Assay type: cell-based
# Conditions: Example 1; 1060R 96-well plate (surface free energy 34 mN/m), fibronectin coated; final doxorubicin 10^-6 M to 10^-14 M; 16 hours at 37° C.; n=3; FIG. 1
# Text: As a culture container a 96-well plate with 96 cylindrical wells each having a bottom area of 0.32 cm^2 was obtained by injection molding of ZEONOR® 1060R (ZEONOR is a registered trademark in Japan, other countries, or both) (ZEON Corporation, hydrogenated norbornene ring-opened polymer, hereinafter simply “1060R”) as an alicyclic structure-containing polymer. The culture container was sterilized with ethylene oxide gas (hereinafter, this culture container is referred to as “1060R 96-well plate”). The surface free energy at the inner bottom surface (cell-contacting surface, or culture surface) of each well of the 1060R 96-well plate was 34 mN/m. The surface free energy was measured using surface energy evaluation inks (Arcotest GmbH).
# To each well of the […] 96-well plate was added 200 μL of 10 μg/mL human fibronectin (Corning Incorporated, product number: 356008) solution in sterile water and incubated at 37° C. for 2 hours to coat the inner bottom surface of each well with human fibronectin. Human fibronectin solution was removed from each well. […]
# Supernatant samples before and after doxorubicin addition were measured for BNP level using Human BNP ELISA Kit (RayBiotech, product number: ELH-BNP).
structure (smiles),measurement,value
COc1cccc2c1C(=O)c1c(O)c3c(c(O)c1C2=O)C[C@@](O)(C(=O)CO)C[C@@H]3O[C@H]1C[C@H](N)[C@H](O)[C@H](C)O1 [doxorubicin],cell-secreted BNP concentration difference before and after addition of doxorubicin,BNP concentration difference increases with increasing doxorubicin concentration
